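Growth conditions: 96-well plates. Treatment: test compound, 48 hours, 5 concentrations. Analysis: linear interpolation between bracketing concentrations; unreached endpoints set to highest concentration. GI50: concentration for 50% inhibition of growth. TGI marks complete inhibition of growth.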

One assay deals with MOLT-4 leukemia. As to the kind of experiment: growth of human tumour cells (NCI), 48 h.
With `Nc1ccccc1C#C/C=C\C#Cc1cccs1`, the GI50 is 2.49 µM and the TGI turned out to be 84.1 µM.

With `COc1ccc(-c2ccc(/C=N/n3c(COc4ccc(Cl)cc4Cl)nn(CN4CCOCC4)c3=S)o2)c([N+](=O)[O-])c1`, the GI50 was 19.4 µM and the TGI was 63.3 µM.

Regarding `O=C(O)/C=C\C(=O)N1C/C(=C\c2ccccc2Cl)C(=O)/C(=C/c2ccccc2Cl)C1`, the GI50 was 3.06 µM and the TGI came to 11.2 µM.

For `COc1ccc(OC)c(/C=C2\SC(=S)NC2=O)c1`, the GI50 is 44.8 µM and the TGI was above 100 µM.

`COc1cc2c(c(OC)c1)C1c3ccccc3NC(=O)N1CC2` (configuration not stated): the GI50 is 3.99 µM and the TGI was above 100 µM.

In another assay the test system is NCI-H226 lung. The experiment in a line: growth of human tumour cells (NCI), 48 h.
Compound `COC(=O)C(=O)C1(CCC(C)=O)c2ccccc2-c2c(C)ccc(C)c21` (configuration not stated) gave a TGI above 100 µM.

Turning to `O=C(/C=C/c1ccccc1)c1cc(Br)ccc1O`, the TGI was found to be 31.7 µM.

Consider `O=C(CN1CCOCC1)Nc1nc(-c2ccc(Cl)cc2)cs1`, for which the TGI worked out at 60.9 µM.

`CC(C)[C@H]1CO[C@]2(C)[C@@H]3CN(Cc4ccccc4)C[C@@H]3C(=O)N12` registered a TGI above 100 µM.

Regarding `COc1ccc2c(c1)/C(=C\c1c(C)nc3sccn13)C(=O)N2`, the GI50 is 6.55 µM and the TGI was found to be 74.4 µM.

Turning to `C#CCOCn1cnc2c(Cl)ncnc21`, the TGI is above 100 µM.

Turning to `Oc1cccc2ccc(N/N=C/c3cc(CN4CCCCC4)c(O)c4ncccc34)nc12`, the GI50 is 0.41 µM and the TGI stood at 2.9 µM.

With `CC1SC2=NC3=C(c4ccccc4C3=O)C(c3ccc(F)cc3)N2C1=O` (configuration not stated), the TGI is above 100 µM.

Consider `CC(=O)OCC1OC(OC2C(CSC3OC(COC(C)=O)C(OC(C)=O)C(OC(C)=O)C3OC(C)=O)OC(OC(C)=O)C(OC(C)=O)C2OC(C)=O)C(OC(C)=O)C(OC(C)=O)C1OC(C)=O` (configuration not stated), for which the TGI is above 100 µM.

In the case of `CCCCCCCCN=C(N)c1ccc(N2CCN(c3ccc(C(N)=NCCCCCCCC)cc3)CC2)cc1`, the GI50 is 1.6 µM and the TGI turned out to be 5.44 µM.

As for `CCCCC(CC)CN=C(N)NC(N)=NCCCCCCN=C(N)NC(N)=NCC(CC)CCCC` (configuration not stated), the GI50 is 2.38 µM and the TGI is 7.48 µM.

Compound `CC1C=C(OC(=O)c2ccccc2)C(=O)C(n2cc(F)c(=O)[nH]c2=O)O1` (configuration not stated) gave a TGI above 100 µM.

Regarding `Nc1ccccc1C#C/C=C\C#Cc1cccs1`, the GI50 is 2.22 µM and the TGI worked out at 16.9 µM.

As to `O=C(O)/C=C\C(=O)N1C/C(=C\c2ccccc2Cl)C(=O)/C(=C/c2ccccc2Cl)C1`, the GI50 was 1.97 µM and the TGI came out at 3.84 µM.

As for `COc1cc2c(c(OC)c1)C1c3ccccc3NC(=O)N1CC2` (configuration not stated), the GI50 is 7.24 µM and the TGI is above 100 µM.

Another assay relates to OVCAR-5 ovarian. The experiment in a line: growth of human tumour cells (NCI), 48 h.
`COC(=O)C(=O)C1(CCC(C)=O)c2ccccc2-c2c(C)ccc(C)c21` (configuration not stated) showed a TGI above 100 µM.

The compound `O=C(/C=C/c1ccccc1)c1cc(Br)ccc1O` showed a TGI of 46.3 µM.

`COc1ccc2nc(-c3cccs3)cc(C(O)CN3CCSCC3)c2c1` (configuration not stated) returned a TGI of 59.8 µM.

In the case of `O=C(CN1CCOCC1)Nc1nc(-c2ccc(Cl)cc2)cs1`, the TGI is above 100 µM.

On to `CC1=Nc2ccccc2S/C1=C(/C)NNC(=O)C(N)=O`, for which the TGI was above 100 µM.

Turning to `COc1ccc2c(c1)/C(=C\c1c(C)nc3sccn13)C(=O)N2`, the GI50 was 7.81 µM and the TGI is above 100 µM.

Consider `CSc1ccc(C2OC(=O)c3ccccc32)c2ccccc12` (configuration not stated), for which the TGI was above 100 µM.

For the compound `C#CCOCn1cnc2c(Cl)ncnc21`, the TGI was above 100 µM.

On to `Oc1cccc2ccc(N/N=C/c3cc(CN4CCCCC4)c(O)c4ncccc34)nc12`, for which the GI50 is 0.0639 µM and the TGI turned out to be 13 µM.

Consider `COc1ccc(-c2n/c(=C\c3c(O)[nH]c4ccc(OC)cc34)cc3c2=Nc2ccccc2-3)cc1`, for which the GI50 is 44.5 µM and the TGI is above 100 µM.

`CC1SC2=NC3=C(c4ccccc4C3=O)C(c3ccc(F)cc3)N2C1=O` (configuration not stated) displayed a TGI above 100 µM.

Consider `CC(=O)OCC1OC(OC2C(CSC3OC(COC(C)=O)C(OC(C)=O)C(OC(C)=O)C3OC(C)=O)OC(OC(C)=O)C(OC(C)=O)C2OC(C)=O)C(OC(C)=O)C(OC(C)=O)C1OC(C)=O` (configuration not stated), for which the TGI was above 100 µM.

In the case of `CCCCCCCCN=C(N)c1ccc(N2CCN(c3ccc(C(N)=NCCCCCCCC)cc3)CC2)cc1`, the GI50 is 3.27 µM and the TGI turned out to be 14.4 µM.

The compound `CC1C=C(OC(=O)c2ccccc2)C(=O)C(n2cc(F)c(=O)[nH]c2=O)O1` (configuration not stated) returned a TGI above 100 µM.

Regarding `COc1cc(OC(C)=O)cc2c(OC(C)=O)ccc(OC(C)=O)c12`, the TGI was above 100 µM.

Regarding `Nc1ccccc1C#C/C=C\C#Cc1cccs1`, the GI50 is 15.2 µM and the TGI worked out at 32.7 µM.

Regarding `COc1ccc(-c2ccc(/C=N/n3c(COc4ccc(Cl)cc4Cl)nn(CN4CCOCC4)c3=S)o2)c([N+](=O)[O-])c1`, the GI50 is 38.8 µM and the TGI is above 100 µM.

Regarding `COc1ccc(OC)c(/C=C2\SC(=S)NC2=O)c1`, the GI50 was 26.7 µM and the TGI was above 100 µM.

In the case of `COc1cc2c(c(OC)c1)C1c3ccccc3NC(=O)N1CC2` (configuration not stated), the GI50 was 4.96 µM and the TGI was above 100 µM.

A further assay deals with RXF 393 renal. As to the kind of experiment: growth of human tumour cells (NCI), 48 h.
Regarding `COC(=O)C(=O)C1(CCC(C)=O)c2ccccc2-c2c(C)ccc(C)c21` (configuration not stated), the TGI was determined as 76.1 µM.

As to `O=C(/C=C/c1ccccc1)c1cc(Br)ccc1O`, the TGI worked out at 37.4 µM.

In the case of `COc1ccc2nc(-c3cccs3)cc(C(O)CN3CCSCC3)c2c1` (configuration not stated), the TGI is above 100 µM.

Consider `CC1=C(Oc2ccccc2)C(CCC(=O)O)c2c(O)cc(Cl)c(O)c21` (configuration not stated), for which the TGI is above 100 µM.

For the compound `CC(C)[C@H]1CO[C@]2(C)[C@@H]3CN(Cc4ccccc4)C[C@@H]3C(=O)N12`, the TGI was above 100 µM.

In the case of `CC1=Nc2ccccc2S/C1=C(/C)NNC(=O)C(N)=O`, the TGI is above 100 µM.

Turning to `COc1ccc2c(c1)/C(=C\c1c(C)nc3sccn13)C(=O)N2`, the GI50 was 0.722 µM and the TGI was above 90.4 µM.

These data come from PubChem BioAssay (NCI).
